Test results taken from patent publication US20140288040A1, “SUBSTITUTED BENZYLAMINE COMPOUNDS, THEIR USE IN MEDICINE, AND IN PARTICULAR THE TREATMENT OF HEPATITIS C VIRUS (HCV) INFECTION” (ASTEX THERAPEUTICS LIMITED, priority 2011, published 2014).
Where a name gives a salt, the structure may show the parent alone. Read-outs that look alike come from different tables or passages of the source.

Legend:
[1] = test system: HCV subgenomic replicon in Huh-7 cells; experiment: Replicon assay, EC50 luciferase readout; assay type: cell-based, hepatitis C virus (HCV); details: Hepatitis C virus
In short: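 Huh-7 cells carrying a subgenomic HCV replicon (NS3-NS5b, firefly luciferase-neo fusion) were treated with compound for 72 h at 37°C, 5% CO2. EC50 derived from Bright-Glo luciferase signal as a proxy for HCV RNA; cell viability measured in parallel by Alamar blue.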

[2] = biological target: T1, HCV NS3 protease (full length NS34a) (Hepatitis C virus genotype 1b, UniProt P26663); experiment: HCV NS3 protease assay (FRET, full length NS34a); assay type: biochemical; details: for inhibition at 0.01 µM: read-out: Activity % inhibition @ 0.01 μM; for inhibition at 0.03 µM: read-out: Activity % inhibition @ 0.03 μM, 0.03 μM compound
T1 construct: The protease activity of the full length NS34a was measured using a FRET-based assay; made in house
In short: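 Full-length NS34a incubated with compound and an NS4AB cleavage-site FRET peptide (QXL520 quencher, 5-FAMsp fluorophore) in 50 mM Tris pH8, 20 mM DTT, 1% CHAPS, 10% glycerol, 5% DMSO. Fluorescence followed for 30 minutes at room temperature; IC50 from initial rates of replicate progress curves.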

[3] = Huh-7, 72 h, Huh-7 replicon cells, 72 h, single value, or second value of a pair x:y, read-out: Activity EC50 (μM) (EC50 luciferase readout)
[4] = protease activity of full length NS34a, FRET peptide substrate, read-out: Activity IC50

T1 sequence (P26663 1658-1711): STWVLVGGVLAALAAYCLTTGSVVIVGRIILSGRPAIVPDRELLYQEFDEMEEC
T1 sequence (P26663 1027-1657): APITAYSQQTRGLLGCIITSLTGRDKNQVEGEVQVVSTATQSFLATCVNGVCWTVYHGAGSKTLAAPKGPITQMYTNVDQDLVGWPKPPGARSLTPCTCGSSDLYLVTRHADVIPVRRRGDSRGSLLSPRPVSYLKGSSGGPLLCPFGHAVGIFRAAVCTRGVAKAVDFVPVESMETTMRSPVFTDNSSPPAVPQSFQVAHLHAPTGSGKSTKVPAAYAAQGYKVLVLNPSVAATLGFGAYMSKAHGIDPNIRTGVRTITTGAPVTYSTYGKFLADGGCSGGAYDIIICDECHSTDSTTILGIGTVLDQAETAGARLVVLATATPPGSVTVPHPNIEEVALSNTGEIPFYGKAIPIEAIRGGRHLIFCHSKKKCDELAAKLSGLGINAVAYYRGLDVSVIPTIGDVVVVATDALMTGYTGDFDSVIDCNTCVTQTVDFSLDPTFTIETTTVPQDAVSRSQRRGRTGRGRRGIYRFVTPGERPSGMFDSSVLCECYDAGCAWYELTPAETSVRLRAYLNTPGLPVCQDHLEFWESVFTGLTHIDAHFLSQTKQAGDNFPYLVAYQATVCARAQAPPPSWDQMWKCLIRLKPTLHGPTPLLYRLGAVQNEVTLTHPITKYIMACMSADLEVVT

Compound `CC[C@@H](N[C@H](C)CC(=O)NCCN)c1ccc(Cl)c(Oc2ccccc2)c1F` [Example 223, (R)—N-(2-Amino-ethyl)-3-[(R)-1-(4-chloro-2-fluoro-3-phenoxy-phenyl)-propylamino]-butyramide.dihydrochloride] has an EC50 [1, 3] of over 30 µM and an IC50 ([2]; Activity IC50 (μM), protease activity of full length NS34a, FRET peptide substrate) of 0.081 µM.

In the case of `CC[C@@H](N[C@@H](C)CC(=O)NCCN)c1ccc(Cl)c(Oc2ccccc2)c1F` [Example 224], the EC50 [1, 3] is reported as 0.0088 µM and the inhibition at 0.01 µM [2] is reported as 65.5%.

For `Cc1cc(Oc2c(F)ccc(CNc3ccncc3)c2F)ccc1N` [Example 225B, [3-(4-Amino-3-methyl-phenoxy)-2,4-difluoro-benzyl]-pyridin-4-yl-amine. hydrochloride], the EC50 [1, 3] was 0.68 µM and the IC50 [2, 4] was 0.73 µM.

`CC[C@@H](N[C@@H](C)CC(N)=O)c1ccc(Cl)c(Oc2cccc(C#N)c2)c1F` [Example 226] gave an EC50 [1, 3] of 2.9 µM and an IC50 [2, 4] of 0.2 µM.

`C#Cc1ccc(Oc2c(Cl)ccc([C@@H](CC)N[C@@H](C)CC(N)=O)c2F)cc1` [Example 230] showed an EC50 [1, 3] of 0.48 µM and an IC50 [2, 4] of 0.17 µM.

`CC[C@@H](N[C@@H](C)CC(N)=O)c1ccc(Cl)c(Oc2ccc3c(c2)OCC3)c1F` [Example 233] gave an EC50 [1, 3] of 0.079 µM and an IC50 [2, 4] of 0.11 µM.

`CC[C@@H](N[C@@H](C)CC(=O)NC1CNC1)c1ccc(Cl)c(Oc2ccccc2)c1F` [Example 234] was tested, and the EC50 [1, 3] was 7.3 µM and the inhibition at 0.03 µM [2] was 57%.

Work on `CC[C@@H](N[C@@H](C)CC(=O)N1CCNCC1)c1ccc(Cl)c(Oc2ccccc2)c1F` [Example 235] yielded an EC50 [1, 3] of 0.6 µM and an IC50 [2, 4] of 0.43 µM.

For `CC[C@@H](N[C@@H](C)CC(=O)N1CCCNCC1)c1ccc(Cl)c(Oc2ccccc2)c1F` [Example 236], the EC50 [1, 3] was 1.7 µM, the IC50 ([2]; IC50 values of 10-150 μM against the protease activity of the full length NS34a, or at least 40% inhibition of protease activity at a concentration of 100 μM) was 10 to 150 µM and the inhibition at 3 µM ([2]; read-out: Activity % inhibition @ 3 μM, 3 μM compound) was 50%.

`CC[C@@H](N[C@@H](C)CC(N)=O)c1ccc(Cl)c(Oc2ccc(C#N)c(C)c2)c1F` [Example 237] gave an EC50 [1, 3] of 0.031 µM and an IC50 [2, 4] of 0.087 µM.

`CC[C@@H](N[C@@H](C)CC(=O)NCCN)c1ccc(Cl)c(Oc2ccc(N)c(C)c2)c1F` [Example 238B, (S)—N-(2-Amino-ethyl)-3-{(R)-1-[3-(4-amino-3-methyl-phenoxy)-4-chloro-2-fluoro-phenyl]-propylamino}-butyramide] showed an EC50 [1, 3] of 0.03 µM, an EC50 ([1]; Huh-7, replicon assay, set in line with previous observations, read-out: pre-determined EC50 set for the combination experiments) of 0.03 µM and an inhibition at 0.03 µM [2] of 58%.

`CC[C@@H](N[C@H](C)CC(=O)NCCN)c1ccc(Cl)c(Oc2ccc(N)c(C)c2)c1F` [Example 239] showed an EC50 [1, 3] of 0.97 µM and an inhibition at 0.03 µM [2] of 41%.

`CC[C@@H](N[C@@H](C)CC(=O)NCCCN)c1ccc(Cl)c(Oc2ccccc2)c1F` [Example 240] was tested, and the EC50 [1, 3] was 8.9 µM and the inhibition at 0.01 µM ([2]; 0.01 μM compound) was 42%.

With `CC[C@@H](N[C@@H](C)CC(=O)NCCNC)c1ccc(Cl)c(Oc2ccccc2)c1F` [Example 241] the EC50 [1, 3] was 0.98 µM and the inhibition at 0.01 µM ([2]; 0.01 μM compound) was 47%.

`CC[C@@H](N[C@H](C)CC(=O)NCCN(C)C)c1ccc(Cl)c(Oc2ccccc2)c1F` [Example 242] was tested, and the EC50 [1, 3] was 0.89 µM and the IC50 [2, 4] was 3.9 µM.

With `CC[C@@H](N[C@@H](C)CC(N)=O)c1ccc(Cl)c(Oc2ccc(NC(C)=O)c(C)c2)c1F` [Example 244, (S)-3-{(R)-1-[3-(4-Acetylamino-3-methyl-phenoxy)-4-chloro-2-fluoro-phenyl]-propylamino}-butyramide.hydrochloride] the EC50 [1, 3] was 0.099 µM and the IC50 [2, 4] was 0.47 µM.

For `CC[C@@H](N[C@@H](C)CC(N)=O)c1ccc(Cl)c(Oc2ccc(C#N)nc2)c1F` [Example 246], the EC50 [1, 3] was over 10 µM and the IC50 [2, 4] was 0.17 µM.

`CC[C@@H](N[C@@H](C)CC(N)=O)c1ccc(Cl)c(Oc2ccc(C(N)=O)nc2)c1F` [Example 249] gave an EC50 [1, 3] of 4.6 µM and an IC50 [2, 4] of 0.38 µM.

In the case of `CC[C@@H](N[C@@H](C)CC(=O)N[C@H]1CCNC1)c1ccc(Cl)c(Oc2ccccc2)c1F` [Example 250], the EC50 [1, 3] is reported as 1 µM and the IC50 [2, 4] is reported as 0.95 µM.

`CC[C@@H](N[C@@H](C)CC(=O)N[C@@H](C)CN)c1ccc(Cl)c(Oc2ccccc2)c1F` [Example 251] was tested, and the EC50 [1, 3] was 1.8 µM and the IC50 [2, 4] was 0.061 µM.

For `CC[C@@H](N[C@@H](C)CC(=O)NC(C)(C)CN)c1ccc(Cl)c(Oc2ccccc2)c1F` [Example 252], the EC50 [1, 3] was 0.88 µM and the IC50 [2, 4] was 1.9 µM.

`CC[C@@H](N[C@@H](C)CC(N)=O)c1ccc(Cl)c(Oc2ccc([N+](=O)[O-])c(OC)c2)c1F` [Example 253] was tested, and the EC50 [1, 3] was 0.13 µM and the IC50 [2, 4] was 0.41 µM.

With `CC[C@@H](N[C@@H](C)CC(N)=O)c1ccc(Cl)c(Oc2ccc(N)c(OC)c2)c1F` [Example 255] the EC50 [1, 3] was 0.012 µM and the IC50 [2, 4] was 0.23 µM.

`CC[C@@H](N[C@@H](C)CC(N)=O)c1ccc(Cl)c(Oc2ccc(N)c(C(F)(F)F)c2)c1F` [Example 260] was tested, and the EC50 [1, 3] was 0.043 µM and the IC50 [2, 4] was 0.17 µM.

`CC[C@@H](N[C@@H](C)CC(=O)N[C@@H]1CCNC1)c1ccc(Cl)c(Oc2ccccc2)c1F` [Example 263] gave an EC50 [1, 3] of 1.6 µM and an IC50 [2, 4] of 0.39 µM.

Work on `CC[C@@H](N[C@@H](C)CC(=O)NC1CCNCC1)c1ccc(Cl)c(Oc2ccccc2)c1F` [Example 264] yielded an EC50 [1, 3] of 0.6 µM and an IC50 [2, 4] of 4.6 µM.

`CC[C@@H](N[C@@H](C)CC(=O)NCCNCc1ccccc1)c1ccc(Cl)c(Oc2ccccc2)c1F` [Example 265] gave an EC50 [1, 3] of 0.47 µM and an IC50 [2, 4] of 1.1 µM.

Work on `CC[C@@H](N[C@@H](C)CC(N)=O)c1ccc(Cl)c(Oc2ccc(N)c(Cl)c2)c1F` [Example 266C, (S)-3-{(R)-1-[3-(4-Amino-3-chloro-phenoxy)-4-chloro-2-fluoro-phenyl]-propyl-amino}-butyramide.dihydrochloride] yielded an EC50 [1, 3] of 0.023 µM and an IC50 [2, 4] of 0.087 µM.

Compound `CC[C@@H](N[C@H](C)CC(N)=O)c1ccc(Cl)c(Oc2ccc(N)c(Cl)c2)c1F` [Example 267] has an EC50 [1, 3] of over 10 µM and an IC50 [2, 4] of 0.48 µM.

Compound `N[C@H]1CC[C@H](NCc2ccc(Cl)c(Oc3ccccc3)c2F)CC1` [Example 271, trans-N-(4-Chloro-2-fluoro-3-phenoxy-benzyl)-cyclohexane-1,4-diamine. dihydrochloride] has an EC50 [1, 3] of 0.34 µM and an IC50 [2, 4] of 0.26 µM.

Work on `Cc1ccc(CN[C@H]2CC[C@H](N)CC2)c(F)c1Oc1ccccc1` [Example 272, trans-N-(2-Fluoro-4-methyl-3-phenoxy-benzyl)-cyclohexane-1,4-diamine.dihydrochloride] yielded an EC50 [1, 3] of 5.3 µM and an IC50 [2, 4] of 0.88 µM.

Compound `CCN(Cc1ccc(Cl)c(Oc2ccccc2)c1F)[C@H]1CC[C@H](N)CC1` [Example 273B, trans-N-(4-Chloro-2-fluoro-3-phenoxy-benzyl)-N-ethyl-cyclohexane-1,4-diamine.dihydrochloride] has an EC50 [1, 3] of 0.76 µM and an IC50 [2, 4] of 2.3 µM.

In the case of `CC[C@H](Nc1ncc[nH]1)c1ccc(Cl)c(Oc2ccccc2)c1F` [Example 275, [(S)-1-(4-Chloro-2-fluoro-3-phenoxy-phenyl)-propyl]-(1H-imidazol-2-yl)-amine.hydrochloride], the EC50 [1, 3] is reported as over 10 µM and the IC50 [2, 4] is reported as 0.41 µM.

`C[C@@H](CC(=O)NCCN)N[C@H](CC1CCOCC1)c1ccc(Cl)c(Oc2ccccc2)c1F` [Example 277, (S)—N-(2-Amino-ethyl)-3-[(R)-1-(4-chloro-2-fluoro-3-phenoxy-phenyl)-2-(tetrahydro-pyran-4-yl)-ethylamino]-butyramide.dihydrochloride] was tested, and the EC50 [1, 3] was 1 µM and the IC50 [2, 4] was 0.11 µM.

`N[C@H]1CC[C@H](NCc2cccc(Oc3ccccc3)c2)CC1` [Example 280] gave an EC50 [1, 3] of 0.4 µM and an IC50 [2, 4] of 5.3 µM.

`N[C@H]1CC[C@@H](NCc2cccc(Oc3ccccc3)c2)CC1` [Example 281] gave an EC50 [1, 3] of 0.79 µM and an IC50 [2, 4] of 10 µM.

With `N[C@H]1CC[C@H](NCc2ccc(F)c(Oc3ccccc3)c2F)CC1` [Example 282] the EC50 [1, 3] was 0.37 µM and the IC50 [2, 4] was 0.73 µM.

`N[C@H]1CC[C@@H](NCc2ccc(F)c(Oc3ccccc3)c2F)CC1` [Example 283] showed an EC50 [1, 3] of 0.27 µM and an IC50 [2, 4] of 0.75 µM.

With `CS(=O)(=O)Nc1cccc(Oc2c(F)ccc(CN[C@H]3CC[C@H](N)CC3)c2F)c1` [Example 284] the EC50 [1, 3] was over 10 µM and the IC50 [2, 4] was 1.4 µM.

`Cc1cc(Oc2c(F)ccc(CN[C@H]3CC[C@H](N)CC3)c2F)ccc1N` [Example 287] was tested, and the EC50 [1, 3] was 6.5 µM and the IC50 [2, 4] was 0.44 µM.

For `Cc1cc(Oc2c(F)ccc(CN[C@H]3CC[C@@H](N)CC3)c2F)ccc1N` [Example 288], the EC50 [1, 3] was 1.4 µM and the IC50 [2, 4] was 1.4 µM.

`N[C@H]1CC[C@H](CNCc2ccc(Cl)c(Oc3ccccc3)c2F)CC1` [Example 289] gave an EC50 [1, 3] of 0.18 µM and an IC50 [2, 4] of 1.1 µM.

Work on `N[C@H]1CC[C@H](NCc2ccc(F)c(Oc3ccccc3)c2Cl)CC1` [Example 290] yielded an EC50 [1, 3] of 10 µM and an IC50 [2, 4] of 3.4 µM.

With `CC[C@@H](N[C@@H](C)CC(N)=O)c1ccc(Cl)c(Oc2ccc(C)nc2)c1F` [Example 313] the EC50 [1, 3] was over 10 µM and the IC50 [2, 4] was 0.15 µM.

With `CCNCCNC(=O)C[C@H](C)N[C@H](CC)c1ccc(Cl)c(Oc2ccccc2)c1F` [Example 316] the EC50 [1, 3] was over 10 µM and the IC50 [2, 4] was 0.4 µM.

In the case of `CC[C@@H](N[C@@H](C)CC(N)=O)c1ccc(Cl)c(Oc2ccc(-c3cnco3)c(C)c2)c1F` [Example 317], the EC50 [1, 3] is reported as 2.7 µM and the IC50 [2, 4] is reported as 0.45 µM.

`CC[C@@H](N[C@@H](C)CC(=O)N[C@H]1C[C@H](N)C1)c1ccc(Cl)c(Oc2ccccc2)c1F` [Example 319] was tested, and the EC50 [1, 3] was 8.6 µM and the IC50 [2, 4] was 3.5 µM.

`CC[C@@H](N[C@@H](C)CC(N)=O)c1ccc(Cl)c(Oc2ccc3c(c2)C(C)(C)CN3)c1F` [Example 322] showed an EC50 [1, 3] of 1.2 µM and an IC50 [2, 4] of 0.27 µM.
